Measured values from patent US11485736B2 (KSQ Therapeutics, Inc., priority 2018, dated 2022).
Like-named read-outs stand apart in the source and are kept apart here.

What was measured:
[1] = ADME solubility determination at pH 2.0 and pH 7.4; format: physicochemical; conditions: aqueous buffer, thermodynamic from solid, LC-MS/MS
Description: Certain Compounds of the Disclosure were assessed for ADME solubility at pH 2.0 and pH 7.4.
Stock solutions were prepared by adding each compound to DMSO at a concentration of 10 mM. Samples were prepared by adding 50 μL of each stock solution to separate vials. The vials were loaded onto a 96-well rack and dried. 500 μL of Phosphate Buffered Saline (PBS) pH 7.4 or PBS pH 2.0 were added into each vial. The vials were then shaken at 25° C. and 1,100 rpm for 24 hours.
After 24 hours, the vials were centrifuged at 3220 G and 25° C. for 30 minutes. The supernatant fluid was analyzed by LC-MS/MS against a standard of known concentration. The solubility of each sample was then calculated using the equation below:
[formula] where DF is the dilution factor.

[2] = Liver microsomal stability, human liver microsomes; format: in vitro ADME; conditions: 1 μM compound, NADPH, read-out: t1/2 (min) in HLM
Description: (§1) Certain Compounds of the Disclosure were assessed for ADME metabolic stability in human liver microsomes (HLM) and rat liver microsomes (RLM).
(§2) Samples were prepared by adding 222.5 μL of a master solution (100 mM phosphate buffer and 1 mg/mL liver microsomes (HLM or RLM)) and 25 μL of a 10 mM NADPH solution to incubation plates, which were then warmed for 10 min. Each compound was separately dissolved in DMSO to prepare 10 mM stock solutions, which were then diluted to 100 μM with acetonitrile. A reaction was started by adding 2.5 μL of the 100 μM solution of each compound to separate incubation plates such that the final concentration of for each compound in each plate was 1 μM.
(§3) 25 μL aliquots of each sample were taken at 0.5, 5, 10, 15, 20 and 30 minutes, and the reaction was stopped by adding 5 volumes of cold acetonitrile with IS (100 nM alprazolam, 200 nM caffeine and 100 nM tolbutamide). The samples were then centrifuged at 3,220 G for 30 minutes, and 100 μL of the supernatant fluid was mixed with 100 μL of ultra-pure H2O.
(§4) The samples were then analyzed by LC-MS/MS. Peak areas were determined from extracted ion chromatograms. Slope values (k) were determined by linear regression of the natural logarithm of the remaining percentage of the compound vs. incubation time curve. […] The in vitro half-life (min) was converted into the in vitro intrinsic clearance (in vitro CLint, in μL/min/mg protein) using the following equation: […]

[3] = Liver microsomal stability, rat liver microsomes; format: in vitro ADME; conditions: 1 μM compound, NADPH, read-out: t1/2 (min) in RLM
Description: as §1, §2, §3, §4

[4] = PBS pH 2.0, shaken at 25° C. for 24 hours, read-out: Solubility at pH 2.0
[5] = PBS pH 7.4, shaken at 25° C. for 24 hours, read-out: Solubility at pH 7.4

Row | solubility at 24 h [1, 4] [µM] | solubility at 24 h [1, 5] [µM] | half-life at 1 μM [2] [min] | half-life at 1 μM [3] [min] | Structure (SMILES)
1 | > 10 | > 10 | < 25 | > 25 | COc1ncnc(C2CC2)c1-c1ncc2cnn([C@@H](C)c3ccc(-c4nc(C(F)(F)F)cn4C)cc3)c2n1 (single isomer, unassigned) [Example 92]
2 | > 10 | > 10 | < 25 | < 25 | COc1ncnc(C2CC2)c1-c1ncc2cnn([C@H](C)c3ccc(-c4nc(C(F)(F)F)cn4C)cc3)c2n1 (single isomer, unassigned) [Example 93]
3 | > 10 | < 10 | > 25 | < 25 | CCn1cc(C(F)(F)F)nc1-c1ccc([C@H](C)n2ncc3cnc(-c4c(OC)ncnc4C4CC4)nc32)cc1 (single isomer, unassigned) [Example 94]
4 | > 10 | < 10 | > 25 | < 25 | CCn1cc(C(F)(F)F)nc1-c1ccc([C@@H](C)n2ncc3cnc(-c4c(OC)ncnc4C4CC4)nc32)cc1 (single isomer, unassigned) [Example 95]
5 | > 10 | < 10 | < 25 | < 25 | CCn1cc(C(F)(F)F)nc1-c1ccc([C@H](C)n2ncc3cnc(-c4c(OC)ncnc4C4CCC4)nc32)cc1 (single isomer, unassigned) [Example 99]
6 | > 10 | < 10 | < 25 | < 25 | CCn1cc(C(F)(F)F)nc1-c1ccc([C@@H](C)n2ncc3cnc(-c4c(OC)ncnc4C4CCC4)nc32)cc1 (single isomer, unassigned) [Example 100]
7 | > 10 | < 10 | < 25 | < 25 | COc1ncnc(C2CCC2)c1-c1ncc2cnn(Cc3ccc(-c4nc(C(F)(F)F)cn4C(C)C)cc3)c2n1 [Example 16]

Second part, the compound before the results:

Row | Structure (SMILES) | solubility at 24 h [1, 4] [µM] | solubility at 24 h [1, 5] [µM] | half-life at 1 μM [2] [min] | half-life at 1 μM [3] [min]
8 | CC(C)c1ccccc1-c1ncc2cnn(Cc3ccc(-c4nc(C(F)(F)F)cn4C)cc3)c2n1 [Example 1, 6-(2-isopropylphenyl)-1-(4-(1-methyl-4-(trifluoromethyl)-1H-imidazol-2-yl)benzyl)-1H-pyrazolo[3,4-d]pyrimidine] | < 10 | < 10 | < 25 | < 25
9 | COc1ccccc1-c1ncc2cnn(Cc3ccc(-c4nc(C(F)(F)F)cn4C)cc3)c2n1 [Example 2, 6-(2-methoxyphenyl)-1-(4-(1-methyl-4-(trifluoromethyl)-1H-imidazol-2-yl)benzyl)-1H-pyrazolo[3,4-d]pyrimidine] | > 10 | < 10 | < 25 | < 25
10 | Cn1cc(C(F)(F)F)nc1-c1ccc(Cn2ncc3cnc(-c4ccccc4S(C)(=O)=O)nc32)cc1 [Example 3, 1-(4-(1-methyl-4-(trifluoromethyl)-1H-imidazol-2-yl)benzyl)-6-(2-(methylsulfonyl)-phenyl)-1H-pyrazolo[3,4-d]pyrimidine] | > 10 | < 10 | > 25 | > 25
11 | COc1cccc(OC)c1-c1ncc2cnn(Cc3ccc(-c4nc(C(F)(F)F)cn4C)cc3)c2n1 [Example 4, 6-(2,6-dimethoxyphenyl)-1-(4-(1-methyl-4-(trifluoromethyl)-1H-imidazol-2-yl)benzyl)-1H-pyrazolo[3,4-d]pyrimidine] | > 10 | < 10 | < 25 | < 25
12 | COc1cccc(C)c1-c1ncc2cnn(Cc3ccc(-c4nc(C(F)(F)F)cn4C)cc3)c2n1 [Example 5, 6-(2-methoxy-6-methylphenyl)-1-(4-(1-methyl-4-(trifluoromethyl)-1H-imidazol-2-yl)benzyl)-1H-pyrazolo[3,4-d]pyrimidine] | > 10 | < 10 | < 25 | < 25
13 | COc1nccc(C)c1-c1ncc2cnn(Cc3ccc(-c4nc(C(F)(F)F)cn4C)cc3)c2n1 [Example 6, 6-(2-methoxy-4-methylpyridin-3-yl)-1-(4-(1-methyl-4-(trifluoromethyl)-1H-imidazol-2-yl)benzyl)-1H-pyrazolo[3,4-d]pyrimidine] | > 10 | < 10 | < 25 | < 25
14 | CCS(=O)(=O)c1ccccc1-c1ncc2cnn(Cc3ccc(-c4nc(C(F)(F)F)cn4C)cc3)c2n1 [Example 7, 6-(2-(ethylsulfonyl)phenyl)-1-(4-(1-methyl-4-(trifluoromethyl)-1H-imidazol-2-yl)benzyl)-1H-pyrazolo[3,4-d]pyrimidine] | < 10 | < 10 | > 25 | < 25
15 | CC(C)c1ncccc1-c1ncc2cnn(Cc3ccc(-c4nc(C(F)(F)F)cn4C)cc3)c2n1 [Example 9, 6-(2-isopropylpyridin-3-yl)-1-(4-(1-methyl-4-(trifluoromethyl)-1H-imidazol-2-yl)benzyl)-1H-pyrazolo[3,4-d]pyrimidine] | > 10 | > 10 | < 25 | < 25
16 | CC(C)c1c(F)cccc1-c1ncc2cnn(Cc3ccc(-c4nc(C(F)(F)F)cn4C)cc3)c2n1 [Example 10, 6-(3-fluoro-2-isopropylphenyl)-1-(4-(1-methyl-4-(trifluoromethyl)-1H-imidazol-2-yl)benzyl)-1H-pyrazolo[3,4-d]pyrimidine] | < 10 | < 10 | < 25 | < 25
17 | COc1cccc(C2CC2)c1-c1ncc2cnn(Cc3ccc(-c4nc(C(F)(F)F)cn4C)cc3)c2n1 [Example 11, 6-(2-cyclopropyl-6-methoxyphenyl)-1-(4-(1-methyl-4-(trifluoromethyl)-1H-imidazol-2-yl)benzyl)-1H-pyrazolo[3,4-d]pyrimidine] | > 10 | > 10 | < 25 | < 25
18 | COc1ncnc(C2CC2)c1-c1ncc2cnn(Cc3ccc(-c4nc(C(F)(F)F)cn4C)cc3)c2n1 [Example 12, 6-(4-cyclopropyl-6-methoxypyrimidin-5-yl)-1-(4-(1-methyl-4-(trifluoromethyl)-1H-imidazol-2-yl)benzyl)-1H-pyrazolo[3,4-d]pyrimidine] | > 10 | > 10 | < 25 | > 25
19 | COc1ncnc(C2CC2)c1-c1ncc2cnn(Cc3ccc(-c4cn(C)c(C(F)(F)F)n4)cc3)c2n1 [Example 13] | < 10 | < 10 | > 25 | > 25
20 | COc1ncnc(C2CCC2)c1-c1ncc2cnn(Cc3ccc(-c4nc(C(F)(F)F)cn4C)cc3)c2n1 [Example 15] | > 10 | > 10 | < 25 | < 25
21 | COc1ncnc(C2CC2)c1-c1ncc2cnn(Cc3ccc(-c4nc(C(F)(F)F)cn4C)c(F)c3)c2n1 [Example 17] | < 10 | < 10 | > 25 | > 25
22 | COc1ncnc(C2CC2)c1-c1ncc2cnn(Cc3ccc(-c4csc(C(F)(F)F)n4)cc3)c2n1 [Example 126] | < 10 | < 10 |  | 
